Experimental data reported in US12466817B2, “Pyridine derivative and application thereof” (Nicoya Therapeutics (Shanghai) Co., Ltd, priority 2020, dated 2025).

Legend:
CYP2C19 = molecular target: T1, CYP2C19 (Homo sapiens, UniProt P33261); assay: Inhibition of human liver microsomal CYP2C19 activity; assay type: in vitro ADME; settings: human liver microsomes, probe substrate (S)-mephenytoin, NADPH
T1 construct: from tissue; host or cells: human liver microsomes
Protocol: (§1) A total of five specific probe substrates for the five isozymes of CYP, phenacetin (CYP1A2), diclofenac (CYP2C9), (S′)-mephenytoin (CYP2C19), dextromethorphan ([…]), and midazolam (CYP3A4), were incubated respectively with human liver microsomes and the test compounds, and the reaction was initiated by the addition of reduced nicotinamide adenine dinucleotide phosphate (NADPH), and the samples were treated and the concentrations of the five metabolites produced by the specific substrates, acetaminophen, 4′-hydroxydiclofenac, 4′-hydroxymephenytoin, dextrorphan and 1′-hydroxymidazolam were measured by liquid chromatography tandem mass spectrometry (LC-MS/MS) after the end of the reaction, and the corresponding half maximal inhibitory concentrations (IC50) were calculated.

CYP1A2 = molecular target: T2, CYP1A2 (Homo sapiens, UniProt P05177); assay: Inhibition of human liver microsomal CYP1A2 activity; assay type: in vitro ADME; settings: human liver microsomes, probe substrate phenacetin, NADPH
T2 construct: from tissue; host or cells: human liver microsomes
T2 sequence (P05177 1-516): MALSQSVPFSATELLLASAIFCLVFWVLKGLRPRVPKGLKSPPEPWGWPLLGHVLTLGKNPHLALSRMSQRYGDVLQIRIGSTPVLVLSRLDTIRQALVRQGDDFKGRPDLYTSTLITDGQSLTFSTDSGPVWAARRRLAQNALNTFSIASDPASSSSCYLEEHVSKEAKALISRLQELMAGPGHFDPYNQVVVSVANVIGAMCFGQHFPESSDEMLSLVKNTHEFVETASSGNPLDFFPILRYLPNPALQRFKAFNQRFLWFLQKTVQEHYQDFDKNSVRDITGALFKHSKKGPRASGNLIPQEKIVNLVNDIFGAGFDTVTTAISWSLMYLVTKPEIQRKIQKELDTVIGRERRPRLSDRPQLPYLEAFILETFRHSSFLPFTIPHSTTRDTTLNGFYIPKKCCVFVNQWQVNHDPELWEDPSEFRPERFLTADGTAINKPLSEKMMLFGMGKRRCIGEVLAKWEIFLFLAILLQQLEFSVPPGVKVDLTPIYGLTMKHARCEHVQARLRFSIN
Protocol: as §1

[1] = Comparative pharmacokinetic test in mice; assay type: in vivo, C57BL/6 male mice
Protocol: C57BL/6 male mice were used as test animals in the present study, and the plasma drug concentrations of the test compound WX009 and the reference compound in mice by intravenous administration or oral administration were quantified by LC/MS/MS method at different time points respectively to evaluate the pharmacokinetic characteristics of the two test drugs in mice.
A clarified solution of the test compound was injected via tail vein into C57BL/6 mice (overnight fasting, 7-10 weeks old), and the test compound was given by gavage into C57BL/6 mice (overnight fasting, 7-10 weeks old). Approximately 30 μL of blood was collected from the jugular or tail vein at 0.0833, 0.25, 0.5, 1, 2, 4, 6, 8, and 24 hours after administration, and placed in anticoagulation tubes added with EDTA-K2, then centrifuged at 4° C. for 15 minutes at 3000 g to give the plasma. Plasma drug concentration was determined by LC-MS/MS, and relevant pharmacokinetic parameters were calculated using WinNonlin™ Version 6.3 (Pharsight, Mountain View, CA) pharmacokinetic software with a non-compartmental model linear logarithmic trapezoidal method.

CCR5 = molecular target: T3, CCR5 (Homo sapiens, UniProt P51681); assay: CCR5 FLIPR Calcium assay (intracellular calcium signaling); assay type: cell-based; settings: HEK293 host cells, clone C13; agonist RANTES; Fluo-4 calcium signal
T3 construct: expressed in transfected cells; host or cells: HEK293, clone C13, passage P4
Protocol: (§2) The inhibitory effects of the compounds on CCR2 and CCR5 receptors were evaluated by detecting intracellular calcium signaling changes by FLIPR Calcium assay, using the IC50 values of the compounds as indicators.
(§3) 1. Cell lines: The cells were seeded and incubated overnight at 37° C. in a 5% CO2 incubator CCR2/CCR5 density: 1 M (20 k/well)
(§4) 2. Reagent: Fluo-4 Direct, (Invitrogen, Cat #F10471)
(§5) The compound was prepared by dissolving in DMSO to a 10 mM solution, and the compound solution was placed in a nitrogen chamber.
(§6) Preparation of probenecid in FLIPR assay buffer: 1 mL of FLIPR assay buffer was added to 77 mg of probenecid to make a 250 mM solution. The solution was prepared every day to keep fresh.
(§7) 2× (8 μM) Fluo-4 Direct™ loading buffer (10 mL of each)
(§8) 0.2 mL of probenecid was added to each 10 mL of Fluo-Direct. The final measured concentration was 2.5 mM MCP-1 was diluted in FLIPR assay buffer 1:2 for 10 spots, starting at 0.5 μM (eventually to […]). RANTES was diluted in FLIPR assay buffer 1:3 for 10 spots, starting at 0.5 μM (eventually to […]). 20 μL of serially diluted compound buffer was added to each well of the DRC plate.
(§9) The standard compound was diluted in DMSO 1:3 for 11 points, starting at 1 mM.
(§10) The test compound was diluted in DMSO 1:3 for 11 spots, starting at 2 mM. 250 nL of compound solution was transferred to cell plates using Echo (Greiner #781946) c) The cell plate was taken from the incubator and 20 μL of 2× Fluo-4 Direct no wash loading buffer was gently dispensed into a 384-well cell culture plate using a pipette. The volume in the final cell plate was 40 μL […]
(§11) d) Incubation was conducted at 37° C. 5% CO2 for 50 minutes, at room temperature for 10 minutes e) The cell plate was taken from the incubator and placed in the FLIPR. The composite plate and pipette tip box were placed in the FLIPR
(§12) 5) The “Max-Min” was calculated from Read 90 to the maximum allowed. EC80 values for each cell line were calculated using FLIPR
(§13) 6) Agonist reference compound at 5 times EC80 concentration was prepared 2) 10 μL of agonist reference compound at 5 times EC80 concentration was transferred from the composite plate to the cell plate.
(§14) 3) Fluorescence signals were read.
(§15) 4) The “Max-Min” was calculated from Read 90 to the maximum allowed h) Data was analyzed by using Prism, the IC50 values of the compounds were calculated.

CYP3A4 = molecular target: T4, CYP3A4 (Homo sapiens, UniProt P08684); assay: Inhibition of human liver microsomal CYP3A4 activity; assay type: in vitro ADME; settings: human liver microsomes, probe substrate midazolam, NADPH
T4 construct: from tissue; host or cells: human liver microsomes
Protocol: as §1

CCR2 = molecular target: T5, CCR2 (Homo sapiens, UniProt P41597); assay: CCR2 FLIPR Calcium assay (intracellular calcium signaling); assay type: cell-based; settings: HEK293 host cells, clone C7; agonist MCP-1; Fluo-4 calcium signal
T5 construct: expressed in transfected cells; host or cells: HEK293, clone C7, passage P6
Protocol: as §2, §3, §4, §5, §6, §7, §8, §9, §10, §11, §12, §13, §14, §15

CYP2D6 = molecular target: T6, CYP2D6 (Homo sapiens, UniProt P10635); assay: Inhibition of human liver microsomal CYP2D6 activity; assay type: in vitro ADME; settings: human liver microsomes, probe substrate dextromethorphan, NADPH
T6 construct: from tissue; host or cells: human liver microsomes
Protocol: as §1

[2] = system: human liver microsomal cytochrome P450 isozymes (CYP1A2, CYP2B6, CYP2C8, CYP2C9, CYP2C19, CYP2D6 and CYP3A4); assay: Inhibition of human liver microsomal cytochrome P450 isozymes, overall conclusion; assay type: in vitro ADME; settings: human liver microsomes
Protocol: as §1

CYP2C9 = molecular target: T7, CYP2C9 (Homo sapiens, UniProt P11712); assay: Inhibition of human liver microsomal CYP2C9 activity; assay type: in vitro ADME; settings: human liver microsomes, probe substrate diclofenac, NADPH
T7 construct: from tissue; host or cells: human liver microsomes
Protocol: as §1

T1 sequence (P33261 whole entry): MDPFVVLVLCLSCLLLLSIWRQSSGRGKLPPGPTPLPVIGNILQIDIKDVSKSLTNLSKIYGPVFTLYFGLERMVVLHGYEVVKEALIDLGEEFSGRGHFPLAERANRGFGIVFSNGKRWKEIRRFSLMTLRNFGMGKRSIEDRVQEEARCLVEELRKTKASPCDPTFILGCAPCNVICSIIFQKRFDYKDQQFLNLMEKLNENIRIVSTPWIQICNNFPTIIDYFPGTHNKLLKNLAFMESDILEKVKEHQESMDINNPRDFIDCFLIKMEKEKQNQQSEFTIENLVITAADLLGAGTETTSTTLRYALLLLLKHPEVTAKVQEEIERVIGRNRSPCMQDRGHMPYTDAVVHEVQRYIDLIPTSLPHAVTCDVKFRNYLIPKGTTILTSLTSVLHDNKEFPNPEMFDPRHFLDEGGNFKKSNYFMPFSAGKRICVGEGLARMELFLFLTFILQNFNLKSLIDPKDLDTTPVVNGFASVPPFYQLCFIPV
T3 sequence (P51681 whole entry, species assumed): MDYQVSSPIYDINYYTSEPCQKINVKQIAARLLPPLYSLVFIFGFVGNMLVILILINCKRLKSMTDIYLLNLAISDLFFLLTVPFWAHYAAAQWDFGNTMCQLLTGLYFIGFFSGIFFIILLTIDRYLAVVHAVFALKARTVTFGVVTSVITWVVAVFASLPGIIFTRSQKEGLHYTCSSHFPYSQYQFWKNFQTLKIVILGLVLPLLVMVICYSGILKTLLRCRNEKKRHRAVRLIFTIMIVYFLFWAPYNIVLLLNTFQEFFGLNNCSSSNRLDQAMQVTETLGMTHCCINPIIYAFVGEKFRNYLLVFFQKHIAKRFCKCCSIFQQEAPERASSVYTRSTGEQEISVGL
T6 sequence (P10635 whole entry): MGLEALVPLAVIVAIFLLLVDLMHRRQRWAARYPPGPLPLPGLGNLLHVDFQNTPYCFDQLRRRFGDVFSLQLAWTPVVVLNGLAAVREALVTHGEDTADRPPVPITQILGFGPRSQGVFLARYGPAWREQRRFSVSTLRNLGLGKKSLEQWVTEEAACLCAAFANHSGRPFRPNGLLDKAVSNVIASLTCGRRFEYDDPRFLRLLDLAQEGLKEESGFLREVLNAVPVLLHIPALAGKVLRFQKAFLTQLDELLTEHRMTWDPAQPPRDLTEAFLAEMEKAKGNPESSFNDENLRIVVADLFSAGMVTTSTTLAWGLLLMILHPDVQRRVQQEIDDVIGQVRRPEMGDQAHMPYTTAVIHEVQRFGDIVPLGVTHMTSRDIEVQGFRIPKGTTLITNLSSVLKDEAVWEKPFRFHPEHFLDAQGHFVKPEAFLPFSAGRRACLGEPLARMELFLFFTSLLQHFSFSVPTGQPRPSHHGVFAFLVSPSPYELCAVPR
T5 sequence (P41597 whole entry, species assumed): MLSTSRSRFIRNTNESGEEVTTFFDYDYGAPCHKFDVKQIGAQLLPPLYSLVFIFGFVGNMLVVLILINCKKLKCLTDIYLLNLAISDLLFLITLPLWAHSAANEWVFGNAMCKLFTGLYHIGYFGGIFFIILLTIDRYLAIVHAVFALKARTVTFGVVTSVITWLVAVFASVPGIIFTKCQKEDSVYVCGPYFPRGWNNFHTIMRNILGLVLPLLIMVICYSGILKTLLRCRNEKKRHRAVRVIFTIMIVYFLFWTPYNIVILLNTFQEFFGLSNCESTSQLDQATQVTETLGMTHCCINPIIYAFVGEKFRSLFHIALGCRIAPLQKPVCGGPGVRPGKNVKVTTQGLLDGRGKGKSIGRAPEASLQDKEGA
T7 sequence (P11712 whole entry): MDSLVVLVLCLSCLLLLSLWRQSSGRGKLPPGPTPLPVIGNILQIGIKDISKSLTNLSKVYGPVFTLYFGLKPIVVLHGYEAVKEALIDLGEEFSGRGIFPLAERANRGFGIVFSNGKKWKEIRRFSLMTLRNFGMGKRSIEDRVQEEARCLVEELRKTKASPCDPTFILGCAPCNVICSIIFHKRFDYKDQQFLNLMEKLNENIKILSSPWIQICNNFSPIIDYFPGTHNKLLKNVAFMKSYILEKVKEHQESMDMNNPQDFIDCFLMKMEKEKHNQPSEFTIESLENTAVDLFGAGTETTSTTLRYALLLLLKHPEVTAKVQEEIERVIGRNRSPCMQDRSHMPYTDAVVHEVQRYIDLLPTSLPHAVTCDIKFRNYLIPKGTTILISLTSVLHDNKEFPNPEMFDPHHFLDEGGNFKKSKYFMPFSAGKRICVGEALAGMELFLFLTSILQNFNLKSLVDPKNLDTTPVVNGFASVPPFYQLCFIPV
T4 sequence (P08684 whole entry): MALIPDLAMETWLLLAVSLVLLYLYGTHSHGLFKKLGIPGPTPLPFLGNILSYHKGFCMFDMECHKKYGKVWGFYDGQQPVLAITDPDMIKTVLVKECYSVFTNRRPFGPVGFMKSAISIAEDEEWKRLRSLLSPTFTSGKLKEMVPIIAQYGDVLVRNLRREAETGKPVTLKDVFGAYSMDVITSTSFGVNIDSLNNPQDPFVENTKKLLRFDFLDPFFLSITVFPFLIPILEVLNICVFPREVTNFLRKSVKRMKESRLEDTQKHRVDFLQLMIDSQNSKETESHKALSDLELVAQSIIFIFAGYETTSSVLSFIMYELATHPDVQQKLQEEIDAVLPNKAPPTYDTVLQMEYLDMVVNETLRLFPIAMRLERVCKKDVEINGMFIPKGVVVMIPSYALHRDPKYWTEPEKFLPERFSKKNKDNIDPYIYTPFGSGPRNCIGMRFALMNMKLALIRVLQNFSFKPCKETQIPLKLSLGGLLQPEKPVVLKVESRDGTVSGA

CCCCOCCOc1ccc(-c2ccc3c(c2)C=C(C(=O)Nc2ccc([S+]([O-])Cc4c(CC)ccnc4C)cc2)CCCN3CC2CCCO2)cc1 (single isomer, unassigned) [WX009]
IC50 (CYP2C19): > 50 µM
IC50 (CYP1A2): > 50 µM
half-life ([1]; male, C57BL/6, mouse, plasma, mice, intravenous injection 2 mg/kg): 4.4 h
clearance ([1]; male, C57BL/6, mouse, plasma, mice, intravenous injection 2 mg/kg, read-out: Plasma clearance rate): 0.46 mL/min/kg
bioavailability ([1]; male, C57BL/6, mouse, plasma, mice, oral 10 mg/kg): 8%
Plasma clearance rate compared with the reference compound (in words) ([1]; mice, intravenous): slower
Oral plasma systemic exposure (AUC0-inf) relative to the reference compound ([1]; mice, oral): approximately six times higher
Area under the time-concentration curve (0-inf) ([1]; mice, oral 10 mg/kg): 37.356 µM·h
Peak concentration ([1]; mice, oral 10 mg/kg): 5.076 µM
Peak time ([1]; mice, oral 10 mg/kg): 2.0 h
Pharmacokinetics compared with the reference compound (in words) ([1]; rodent mice): significantly better
IC50 (CCR5): 0.00464 µM
IC50 (CYP3A4): 4.6 µM
IC50 (CCR2): 0.00184 µM
IC50 (CYP2D6): > 50 µM
Risk of inhibition of human liver microsomal cytochrome P450 isozymes (in words) [2]: no risk of inhibition
IC50 (CYP2C9): > 50 µM

CCCCOCCOc1ccc(-c2ccc3c(c2)C=C(C(=O)Nc2ccc([S+]([O-])Cc4cnc(C)cc4CC)cc2)CCCN3CC2CCOCC2)cc1 (single isomer, unassigned) [WX012]
IC50 (CYP2C19): 10.1 µM
IC50 (CYP1A2): > 50 µM
IC50 (CCR5): 0.0084 µM
IC50 (CYP3A4): > 50 µM
IC50 (CCR2): 0.0015 µM
IC50 (CYP2D6): > 50 µM
Risk of inhibition of human liver microsomal cytochrome P450 isozymes (in words) [2]: no risk of inhibition
IC50 (CYP2C9): 22.6 µM

CCCCOCCOc1ccc(-c2ccc3c(c2)C=C(C(=O)Nc2ccc([S+]([O-])Cc4c(CC)ccnc4C)cc2)CCCN3CC2CCOCC2)cc1 (single isomer, unassigned) [WX007]
IC50 (CYP2C19): > 50 µM
IC50 (CYP1A2): > 50 µM
IC50 (CCR5): 0.00574 µM
IC50 (CYP3A4): > 50 µM
IC50 (CCR2): 0.00196 µM
IC50 (CYP2D6): > 50 µM
Risk of inhibition of human liver microsomal cytochrome P450 isozymes (in words) [2]: no risk of inhibition
IC50 (CYP2C9): > 50 µM
